The values below come from US7550459B2, “Tetrahydroquinoline analogues as muscarinic agonists” (Acadia Pharmaceuticals, Inc., priority 2001, dated 2009).

The structures appear in SMILES notation.

One series concerns the target T1, M4 muscarinic receptor (Homo sapiens, UniProt P08173).
T1 construct: expressed in transfected cells
T1 sequence (P08173 1-479): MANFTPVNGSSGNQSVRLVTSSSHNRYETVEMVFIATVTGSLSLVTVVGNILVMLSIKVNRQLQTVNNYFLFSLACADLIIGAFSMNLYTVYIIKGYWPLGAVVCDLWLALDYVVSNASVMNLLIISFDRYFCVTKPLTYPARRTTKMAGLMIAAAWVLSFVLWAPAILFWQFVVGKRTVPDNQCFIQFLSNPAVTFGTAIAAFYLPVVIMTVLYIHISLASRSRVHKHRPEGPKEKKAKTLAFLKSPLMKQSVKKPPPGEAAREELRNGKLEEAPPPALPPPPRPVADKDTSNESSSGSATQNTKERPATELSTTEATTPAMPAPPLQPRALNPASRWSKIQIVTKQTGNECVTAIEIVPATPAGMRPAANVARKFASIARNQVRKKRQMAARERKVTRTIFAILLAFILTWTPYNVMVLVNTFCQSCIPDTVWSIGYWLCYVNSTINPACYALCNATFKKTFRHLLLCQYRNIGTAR
The series is described as follows: Receptor Selection and Amplification (R-SAT) assay, cloned M4 receptor. The format is cell-based. The settings on record: R-SAT, cloned m4 receptor; for Emax: read-out: m4 % Efficacy; for EC50: read-out: m4 pEC50 (converted). From the text: (§1) The EC50 for an agonist is intended to denote the concentration of a compound needed to achieve 50% of a maximal response seen in an in vitro assay such as R-SAT. For inverse agonists, EC50 is intended to denote the concentration of a compound needed to achieve 50% inhibition of an R-SAT response from basal, no compound, levels.
(§2) A particularly convenient functional assay system is the receptor selection and amplification assay (R-SAT assay) in U.S. Pat. No. 5,707,798, which describes a method of screening for bioactive compounds by utilizing the ability of cells transfected with receptor DNA, e.g., coding for the different muscarinic subtypes, to amplify in the presence of a ligand of the receptor. Cell amplification is detected as increased levels of a marker also expressed by the cells.
(§3) Receptor Selection and Amplification (R-SAT) assays were carried out using the cloned M1-M5 receptors essentially as described in: Brauner-Osborne H, Brann M R. Pharmacology of muscarinic acetylcholine receptor subtypes (m1-m5): high throughput assays in mammalian cells. Eur J Pharmacol Jan. 4, 1996;295(1):93-102, and Spalding T A, Trotter C, Skjaerbaek N, Messier T L, Currier E A, Burstein E S, Li D, Hacksell U, Brann M R. Discovery of an ectopic activation site on the M(1) muscarinic receptor. Mol Pharmacol. 2002 June;61(6):1297-302.

The next series has as its target T2, M2 muscarinic receptor (Homo sapiens, UniProt P08172).
T2 construct: expressed in transfected cells
T2 sequence (P08172 1-466): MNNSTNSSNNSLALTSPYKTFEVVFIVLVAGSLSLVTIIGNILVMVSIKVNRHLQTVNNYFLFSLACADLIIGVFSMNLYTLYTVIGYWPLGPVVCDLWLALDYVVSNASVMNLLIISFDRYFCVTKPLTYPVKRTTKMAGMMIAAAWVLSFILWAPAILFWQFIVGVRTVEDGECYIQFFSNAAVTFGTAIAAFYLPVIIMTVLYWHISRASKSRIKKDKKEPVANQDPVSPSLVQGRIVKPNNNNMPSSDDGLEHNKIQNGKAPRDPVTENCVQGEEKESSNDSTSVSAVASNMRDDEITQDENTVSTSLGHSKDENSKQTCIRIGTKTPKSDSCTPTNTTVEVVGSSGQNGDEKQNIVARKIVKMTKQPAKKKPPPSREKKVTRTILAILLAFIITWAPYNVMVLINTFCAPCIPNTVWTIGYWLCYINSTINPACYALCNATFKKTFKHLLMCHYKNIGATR
The series can be described thus: Receptor Selection and Amplification (R-SAT) assay, cloned M2 receptor. The format is cell-based. The following applies: R-SAT, cloned m2 receptor; for Emax: read-out: m2 % Efficacy; for EC50: read-out: m2 pEC50 (converted). The essentials: (§4)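 Receptor Selection and Amplification functional assay: mammalian cells transfected with the cloned human muscarinic subtype proliferate in response to ligand, read out via a co-expressed marker. Agonist EC50 is the concentration for 50% of maximal response; for inverse agonists, 50% inhibition of basal response.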

The target in a further series is T3, M1 muscarinic receptor (Homo sapiens, UniProt P11229).
T3 construct: expressed in transfected cells
T3 sequence (P11229 1-460): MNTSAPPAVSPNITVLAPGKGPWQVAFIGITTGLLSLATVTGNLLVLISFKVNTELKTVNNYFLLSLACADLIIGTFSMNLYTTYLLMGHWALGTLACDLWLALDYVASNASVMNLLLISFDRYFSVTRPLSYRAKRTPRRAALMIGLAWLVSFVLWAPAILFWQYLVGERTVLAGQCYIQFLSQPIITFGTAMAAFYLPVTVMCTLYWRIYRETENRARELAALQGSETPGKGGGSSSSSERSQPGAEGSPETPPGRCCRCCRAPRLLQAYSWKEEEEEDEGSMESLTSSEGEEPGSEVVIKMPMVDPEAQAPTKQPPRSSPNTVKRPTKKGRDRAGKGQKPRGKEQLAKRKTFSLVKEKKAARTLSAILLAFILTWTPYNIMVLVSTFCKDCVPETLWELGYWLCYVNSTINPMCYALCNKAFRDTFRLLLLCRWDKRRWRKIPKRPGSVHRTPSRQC
The series can be described thus: Receptor Selection and Amplification (R-SAT) assay, cloned M1 receptor. The format is cell-based. The settings on record: R-SAT, cloned m1 receptor; for Emax: read-out: m1 % Efficacy; for EC50: read-out: m1 pEC50 (converted). The essentials: as §4

A further series has as its target T4, M5 muscarinic receptor (Homo sapiens, UniProt P08912).
T4 construct: expressed in transfected cells
T4 sequence (P08912 1-532): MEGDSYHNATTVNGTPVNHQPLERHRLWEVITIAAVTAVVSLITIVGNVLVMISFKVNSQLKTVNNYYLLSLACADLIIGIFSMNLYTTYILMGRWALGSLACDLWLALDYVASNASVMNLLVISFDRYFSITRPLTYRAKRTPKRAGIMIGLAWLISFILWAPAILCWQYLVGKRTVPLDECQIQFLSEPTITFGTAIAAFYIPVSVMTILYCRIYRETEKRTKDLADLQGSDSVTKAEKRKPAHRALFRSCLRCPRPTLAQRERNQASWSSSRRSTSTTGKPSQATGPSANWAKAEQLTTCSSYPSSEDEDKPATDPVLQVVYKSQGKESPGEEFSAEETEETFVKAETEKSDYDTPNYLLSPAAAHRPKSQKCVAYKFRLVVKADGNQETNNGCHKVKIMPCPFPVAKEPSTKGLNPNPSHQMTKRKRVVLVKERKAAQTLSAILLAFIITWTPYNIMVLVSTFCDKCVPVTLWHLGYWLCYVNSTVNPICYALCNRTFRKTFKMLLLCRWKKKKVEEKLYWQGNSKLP
The series is described as follows: Receptor Selection and Amplification (R-SAT) assay, cloned M5 receptor. The format is cell-based. The settings on record: for Emax: read-out: m5 % Efficacy; for EC50: read-out: m5 pEC50 (converted).
From the text: as §1, §2, §3

The conditions of series [1]: some AChE inhibitors, such as tacrine; cited from earlier work.

Take `CCCCC1CCN(CCCN2C(=O)COc3cc(F)ccc32)CC1` [Compound 81MF763, 4-[3-(4-Butylpiperidin-1-yl)propyl]-7-fluoro-4H-benzo[1,4]oxazin-3-one]: the Emax at M4 muscarinic receptor was 57%; on M2 muscarinic receptor, 47%; on M1 muscarinic receptor, 92%; at M5 muscarinic receptor, 50%. Besides, the EC50 on M4 muscarinic receptor was 398 nM; on M2 muscarinic receptor, 251 nM; on M5 muscarinic receptor it was 1260 nM.
For the compound `CCCCC1CCN(CCCN2C(=O)COc3ccc(C)cc32)CC1` [Compound 64LHY89-6, 4-[3-(4-Butyl-piperidin-1-yl)-propyl]-6-methyl-4H-benzo[1,4]oxazin-3-one], the Emax at M4 muscarinic receptor worked out at 50%; on M2 muscarinic receptor it was 35%; on M1 muscarinic receptor, 80%; on M5 muscarinic receptor, 48%. Besides, the EC50 is 316 nM at M4 muscarinic receptor, 631 nM at M2 muscarinic receptor, 39.8 nM on M1 muscarinic receptor and 631 nM at M5 muscarinic receptor.
Take `Nc1c2c(nc3ccccc13)CCCC2` [tacrine]: the “patients with elevated liver transaminases (significant hepatotoxicity)” value in series [1] is reported as “about 30%”.
Turning to `CCCCC1CCN(CCCN2CCOc3ccc(CC)cc32)CC1` [Compound 64LHY91-5, 4-[3-(4-Butyl-piperidin-1-yl)-propyl]-6-ethyl-3,4-dihydro-2H-benzo[1,4]oxazine], the Emax was found to be 51% on M4 muscarinic receptor, 69% at M1 muscarinic receptor and 38% on M5 muscarinic receptor. Besides, the figures for the EC50 on M4 muscarinic receptor, on M1 muscarinic receptor and at M5 muscarinic receptor were 2000 nM, 158 nM and 631 nM, respectively.
For the compound `CCCCC1CCN(CCCN2C(=O)CCc3cc(OC)ccc32)CC1` [Compound 77LH22-A, 1-[3-(4-Butyl-piperidin-1-yl)-propyl]-6-methoxy-3,4-dihydro-1H-quinolin-2-one], at M1 muscarinic receptor, the Emax stood at 76% and the EC50 was 79.4 nM. At M5 muscarinic receptor, the Emax is 37% and the EC50 was over 3160 nM.
